Test results: patent US20260007684A1, “AMIDE DERIVATIVES FOR INHIBITING NLRP3 AND USES THEREOF” (Ventus Therapeutics U.S., Inc., priority 2023, published 2026)
Like-named read-outs stand apart in the source and are kept apart here.

Biological target: human NLRP3 (Homo sapiens (Human), UniProt Q96P20)
Assay: Scintillation Proximity (SPA) NLRP3 Assay: displacement of 3H-MCC950
Type: binding
[1] = displacement of 3H-MCC950, read-out: SPA IC50

Chain of human NLRP3 (Q96P20 whole entry): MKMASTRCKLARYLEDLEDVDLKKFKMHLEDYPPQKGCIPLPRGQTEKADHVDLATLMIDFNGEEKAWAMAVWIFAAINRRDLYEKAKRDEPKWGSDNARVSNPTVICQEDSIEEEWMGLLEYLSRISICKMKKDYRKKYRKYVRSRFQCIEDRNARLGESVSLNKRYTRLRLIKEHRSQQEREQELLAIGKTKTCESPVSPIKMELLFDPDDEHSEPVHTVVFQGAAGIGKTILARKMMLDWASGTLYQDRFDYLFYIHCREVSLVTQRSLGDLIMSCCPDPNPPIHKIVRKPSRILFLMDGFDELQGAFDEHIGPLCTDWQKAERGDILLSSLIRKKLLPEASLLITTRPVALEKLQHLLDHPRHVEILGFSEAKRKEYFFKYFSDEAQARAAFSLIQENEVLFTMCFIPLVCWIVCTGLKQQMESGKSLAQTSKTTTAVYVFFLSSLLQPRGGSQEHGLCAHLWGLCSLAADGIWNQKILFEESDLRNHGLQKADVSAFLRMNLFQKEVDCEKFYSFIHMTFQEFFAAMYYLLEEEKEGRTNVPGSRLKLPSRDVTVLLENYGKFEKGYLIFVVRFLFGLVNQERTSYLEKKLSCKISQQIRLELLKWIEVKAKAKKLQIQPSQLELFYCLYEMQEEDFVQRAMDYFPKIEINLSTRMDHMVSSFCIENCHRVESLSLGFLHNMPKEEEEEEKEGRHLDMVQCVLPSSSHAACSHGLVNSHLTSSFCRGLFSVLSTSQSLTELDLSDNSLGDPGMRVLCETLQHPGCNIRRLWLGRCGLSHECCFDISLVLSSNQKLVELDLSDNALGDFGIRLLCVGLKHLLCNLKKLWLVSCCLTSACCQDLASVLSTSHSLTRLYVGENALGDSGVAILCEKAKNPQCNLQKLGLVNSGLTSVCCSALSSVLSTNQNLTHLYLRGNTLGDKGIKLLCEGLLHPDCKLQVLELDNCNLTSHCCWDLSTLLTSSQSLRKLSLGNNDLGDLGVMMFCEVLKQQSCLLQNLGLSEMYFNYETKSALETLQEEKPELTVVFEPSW

SMILES | IC50 [1] [µM] | IC50 (SPA IC50, displacement of 3H-MCC950) [µM]
O=C(N[C@H]1CCC[C@H]2CC[C@@H]1N2c1nnn[nH]1)C1(c2ccc(Cl)cc2)CC1 (single isomer, unassigned) [9D*, N-(9-(1H-tetrazol-5-yl)-9-azabicyclo[4.2.1]nonan-2-yl)-1-(4-chlorophenyl)cyclopropane-1-carboxamide] |  | 10 to 50
C[C@]1(NC(=O)C2(c3ccc(Cl)cc3)CC2)CCCN(c2nnn[nH]2)C1 (single isomer, unassigned) [11B*, 1-(4-chlorophenyl)-N-(3-methyl-1-(1H-tetrazol-5-yl)piperidin-3-yl)cyclopropane-1-carboxamide] | > 100 | 
C[C@@H]1CCN(c2nnn[nH]2)C[C@@H](NC(=O)C2(c3ccc(Cl)c(F)c3O)CC2)C1 (single isomer, unassigned) [18B*, 1-(4-chloro-3-fluoro-2-hydroxyphenyl)-N-(5-methyl-1-(1H-tetrazol-5-yl)azepan-3-yl)cyclopropane-1-carboxamide] | 1 to 10 | 
Cc1c(Cl)ccc(C2(C(=O)N[C@@H]3C[C@@H](C)CCN(c4nnn[nH]4)C3)CC2)c1O (single isomer, unassigned) [21C*, 1-(4-chloro-2-hydroxy-3-methylphenyl)-N-(5-methyl-1-(1H-tetrazol-5-yl)azepan-3-yl)cyclopropane-1-carboxamide] | > 100 | 
Cc1ccc(C2(C(=O)N[C@@H]3C[C@@H](C)CCN(c4nnn[nH]4)C3)CC2)c(O)c1F (single isomer, unassigned) [22C*, 1-(3-fluoro-2-hydroxy-4-methylphenyl)-N-(5-methyl-1-(1H-tetrazol-5-yl)azepan-3-yl)cyclopropane-1-carboxamide] | 10 to 50 | 
CC(C)c1ccc(C2(C(=O)N[C@@H]3C[C@@H](C)CCN(c4nnn[nH]4)C3)CC2)c(O)c1 (single isomer, unassigned) [27C*, 1-(2-hydroxy-4-isopropylphenyl)-N-(5-methyl-1-(1H-tetrazol-5-yl)azepan-3-yl)cyclopropane-1-carboxamide] | 50 to 100 | 
C[C@H]1CCN(c2nnn[nH]2)C[C@H](NC(=O)C2(c3ccc(OC(F)(F)F)c(F)c3O)CC2)C1 (single isomer, unassigned) [28C*, 1-(3-fluoro-2-hydroxy-4-(trifluoromethoxy)phenyl)-N-(5-methyl-1-(1H-tetrazol-5-yl)azepan-3-yl)cyclopropane-1-carboxamide] | > 100 | 
C[C@H]1CCN(c2nnn[nH]2)C[C@@H](NC(=O)C2(c3cc(F)c(Cl)cc3O)CC2)C1 (single isomer, unassigned) [29D*, 1-(4-chloro-5-fluoro-2-hydroxyphenyl)-N-(5-methyl-1-(1H-tetrazol-5-yl)azepan-3-yl)cyclopropane-1-carboxamide] | 10 to 50 | 
C[C@H]1CCN(c2nnn[nH]2)C[C@H](NC(=O)C2(c3ccc(C(F)F)cc3O)CC2)C1 (single isomer, unassigned) [30C*, 1-(4-(difluoromethyl)-2-hydroxyphenyl)-N-(5-methyl-1-(1H-tetrazol-5-yl)azepan-3-yl)cyclopropane-1-carboxamide] | > 100 | 

Second part, led by results:

IC50 [1] [µM] | SMILES | IC50 (SPA IC50, displacement of 3H-MCC950) [µM]
> 100 | C[C@@]1(NC(=O)C2(c3ccc(Cl)cc3)CC2)CCCN(c2nnn[nH]2)C1 (single isomer, unassigned) [11A*, 1-(4-chlorophenyl)-N-(3-methyl-1-(1H-tetrazol-5-yl)piperidin-3-yl)cyclopropane-1-carboxamide] | 
10 to 50 | C[C@@H]1CCN(c2nnn[nH]2)C[C@@H](NC(=O)C2(c3ccc(Cl)cc3)CC2)C1 (single isomer, unassigned) [12B*, 1-(4-chlorophenyl)-N-(5-methyl-1-(1H-tetrazol-5-yl)azepan-3-yl)cyclopropane-1-carboxamide] | 
> 100 | C[C@H]1CCN(c2nnn[nH]2)C[C@H](NC(=O)C2(c3ccc(Cl)cc3)CC2)C1 (single isomer, unassigned) [12C*, 1-(4-chlorophenyl)-N-(5-methyl-1-(1H-tetrazol-5-yl)azepan-3-yl)cyclopropane-1-carboxamide] | 
10 to 50 | C[C@H]1CCN(c2nnn[nH]2)C[C@@H](NC(=O)C2(c3ccc(Cl)cc3)CC2)C1 (single isomer, unassigned) [12D*, 1-(4-chlorophenyl)-N-(5-methyl-1-(1H-tetrazol-5-yl)azepan-3-yl)cyclopropane-1-carboxamide] | 
10 to 50 | O=C(N[C@H]1CCCCCN(c2nnn[nH]2)C1)C1(c2ccc(Cl)cc2)CC1 (single isomer, unassigned) [14B*, N-(1-(1H-tetrazol-5-yl)azocan-3-yl)-1-(4-chlorophenyl)cyclopropane-1-carboxamide] | 
1 to 10 | Cc1c(Cl)ccc(C2(C(=O)N[C@H]3C[C@H](C)CCN(c4nnn[nH]4)C3)CC2)c1O (single isomer, unassigned) [21B*, 1-(4-chloro-2-hydroxy-3-methylphenyl)-N-(5-methyl-1-(1H-tetrazol-5-yl)azepan-3-yl)cyclopropane-1-carboxamide] | 
10 to 50 | Cc1c(Cl)ccc(C2(C(=O)N[C@H]3C[C@@H](C)CCN(c4nnn[nH]4)C3)CC2)c1O (single isomer, unassigned) [21D*, 1-(4-chloro-2-hydroxy-3-methylphenyl)-N-(5-methyl-1-(1H-tetrazol-5-yl)azepan-3-yl)cyclopropane-1-carboxamide] | 
1 to 10 | Cc1ccc(C2(C(=O)N[C@H]3C[C@H](C)CCN(c4nnn[nH]4)C3)CC2)c(O)c1F (single isomer, unassigned) [22B*, 1-(3-fluoro-2-hydroxy-4-methylphenyl)-N-(5-methyl-1-(1H-tetrazol-5-yl)azepan-3-yl)cyclopropane-1-carboxamide] | 
1 to 10 | Cc1ccc(C2(C(=O)N[C@H]3C[C@@H](C)CCN(c4nnn[nH]4)C3)CC2)c(O)c1F (single isomer, unassigned) [22D*, 1-(3-fluoro-2-hydroxy-4-methylphenyl)-N-(5-methyl-1-(1H-tetrazol-5-yl)azepan-3-yl)cyclopropane-1-carboxamide] | 
1 to 10 | CC(C)c1ccc(C2(C(=O)N[C@H]3C[C@H](C)CCN(c4nnn[nH]4)C3)CC2)c(O)c1 (single isomer, unassigned) [27B*, 1-(2-hydroxy-4-isopropylphenyl)-N-(5-methyl-1-(1H-tetrazol-5-yl)azepan-3-yl)cyclopropane-1-carboxamide] | 
1 to 10 | CC(C)c1ccc(C2(C(=O)N[C@H]3C[C@@H](C)CCN(c4nnn[nH]4)C3)CC2)c(O)c1 (single isomer, unassigned) [27D*, 1-(2-hydroxy-4-isopropylphenyl)-N-(5-methyl-1-(1H-tetrazol-5-yl)azepan-3-yl)cyclopropane-1-carboxamide] | 
1 to 10 | C[C@@H]1CCN(c2nnn[nH]2)C[C@@H](NC(=O)C2(c3ccc(OC(F)(F)F)c(F)c3O)CC2)C1 (single isomer, unassigned) [28B*, 1-(3-fluoro-2-hydroxy-4-(trifluoromethoxy)phenyl)-N-(5-methyl-1-(1H-tetrazol-5-yl)azepan-3-yl)cyclopropane-1-carboxamide] | 
1 to 10 | C[C@H]1CCN(c2nnn[nH]2)C[C@@H](NC(=O)C2(c3ccc(OC(F)(F)F)c(F)c3O)CC2)C1 (single isomer, unassigned) [28D*, 1-(3-fluoro-2-hydroxy-4-(trifluoromethoxy)phenyl)-N-(5-methyl-1-(1H-tetrazol-5-yl)azepan-3-yl)cyclopropane-1-carboxamide] | 
